Where “and” joins values, the source holds several entries; their conditions need not be identical. Equal values may be shown once.
How the values were obtained:
[1] = test system: UCP1 mRNA in human skeletal muscle (vastus lateralis); assay: UCP1 mRNA expression in skeletal muscle biopsies before and after rosiglitazone treatment in vivo
Protocol: Since the PPARγ agonist rosiglitazone was a strong inducer of UCP1 mRNA expression in muscle CD34+ cells in culture, the effect of this compound in vivo in humans was investigated. Vastus lateralis muscle biopsies from 7 obese patients with type 2 diabetes mellitus treated for the management of their metabolic syndrome with rosiglitazone were used. The biopsies were obtained before and after 8 weeks of treatment with rosiglitazone (2×4 mg per day). […] In that study rosiglitazone, concomitantly with the improvement in insulin sensitivity, increased the level of expression of UCP1 in muscle by about 1.6-fold. […] The results are the means±s.e.m. of arbitrary values normalized using the corresponding cyclophilin A values (n=7, *p<0.05 vs. control).
In FIG. 5, showing UCP1 mRNA levels in skeletal muscle biopsies from a patient group (n=7), “control” corresponds to levels before treatment, and “Rosi” corresponds to levels after treatment (8 weeks) with rosiglitazone. Being a longitudinal study the effect of rosiglitazone on UCP1 levels in each individual (comparison of individual values for the “control”-before and “Rosi”-after conditions) were determined. Starting with 25 ng cDNA (produced by reverse transcription of RNA) the threshold of detection (Ct) during real-time PCR was about 22 for UCP1 and about 18 for cyclophilin. The effect of rosiglitazone (UCP1 level at end of treatment vs. before treatment) were as follows: […]
Quantitative real-time PCR was performed using ABI rapid thermal cycler system and a SYBR Green PCR master mix (Applied Biosystems, Foster City, Calif.), or an ABI 7300 Real-time PCR instrument, a TaqMan Gene Expression Master Mix (Applied Biosystems #4369016) and TaqMan Gene Expression Pre-formulated Assays for human uncoupling protein-1 (GenBank NM_021833) (Applied Biosystems Assay ID Hs01084772_m1, TaqMan Gene Expression Assay part #4351372) and for human peptidylprolyl isomerase A “cyclophilin A” (GenBank NM_021130) (Applied Biosystems Assay ID Hs99999904_m1, TaqMan® Gene Expression Assay part #4448485). Cyclophilin A was used as a control to account for any variations due to the efficiency of the reverse transcription. The upstream and downstream oligonucleotide primers were chosen on both sides of an intron to prevent amplification of contaminating genomic DNA.
Primers used for real time quantitative PCR in human skeletal muscle are as follows:
Data are expressed as means±s.e.m. Significances were evaluated using the unpaired Student's t-test. A paired Student's t-test was used to determine the effects of rosiglitazone on human skeletal muscle UCP1 mRNA levels. Significances were set at p<0.05.

[2] = test system: CD31- cells; assay: Quantification of UCP1 protein by fluorescence immunohistochemistry in CD31- cells; assay type: cell-based, human; conditions: rosiglitazone 1 μM in MDM from day 0, 15 days
Description: Using this method, UCP1 staining can be evaluated using automated high content imaging. GE Healthcare's InCell 1000 High Content Imager combines automated microscopy with high content image analysis software (InCell Developer Toolbox). The reference compound rosiglitazone was used to promote the differentiation of the CD31− cells and increase the expression of UCP1. Using a primary antibody that recognizes UCP1, Abcam ab23841, and a secondary antibody, Alexafluor 488 goat anti-rabbit antibody, we can quantify relative UCP1 levels per cell.
Referring to FIGS. 17A-17B, culturing and differentiation of CD31− cells into brown adipocytes were performed as described in Methods without (FIG. 17A) or with (FIG. 17B) rosiglitazone (1 μM) added to the adipogenic medium (MDM) from day 0. […] Alexafluor 488 goat anti-rabbit antibody was used to quantify relative UCP1 levels (green). […] UCP1 signal intensity was measured using the GE Developer Toolbox software on images collected on the InCell 1000 Automated High Content Imager. […]
Culturing and differentiation of CD31− cells into brown adipocytes were performed using adipogenic differentiation medium lacking (Minimal Differentiation Medium, MDM) or containing 1 μM rosiglitazone (Reference Differentiation Medium, RDM). […] As a readout, total intensity of UCP1 signal within the cell was used, normalized to cell number.

[3] = test system: human fetal muscle CD34+ cells; assay: UCP1 mRNA expression by quantitative RT-PCR in cultured fetal muscle CD34+ cells; assay type: cell-based; conditions: rosiglitazone 1 μM
Protocol: UCP1 mRNA expression in fetal muscle CD34+ cells could be modulated by drug treatment. Cell-permeating cAMP derivatives strongly stimulated (7 to 8-fold) UCP1 mRNA expression in both primary cultured and expanded cells. The effects of cAMP derivatives, 8-bromo-cAMP, 0.25 mM or (4-chlorophenylthio)-cAMP, 0.25 mM (cAMP) on UCP1 mRNA expression in CD34+ cells in primary culture (PC) or expanded up to passage 3 (P3) are shown in FIG. 3B. All the cells were grown for 4-6 days in EGM2 medium and then placed for 8-12 days in the adipogenic medium described under Materials and Methods. The results are means±s.e.m. of arbitrary values normalized using the corresponding cyclophilin A values. […]
Rosiglitazone, a PPARγ agonist, had no effect in primary culture cells but strongly stimulated (8-fold) UCP1 mRNA expression in expanded cells. The results are expressed as in FIG. 3B (**p<0.01, n=4-7). […]
Total cell RNA was prepared using the kit NucleoSpin® RNAII (Clontech, Palo Alto, Calif.), Extract-all solution (Eurobio, Courtaboeuf, France) or PureLink RNA Isolation Kit (Invitrogen #12183-016) and quantified by Biophotometry (Biophotometer, Eppendorf). […]
Arbitrary units were determined by normalizing target mRNA levels to cyclophilin mRNA levels (based on Cts), wherein the cyclophilin levels were first divided by 100,000 for ease of reference. […]

[4] = test system: human fetal muscle-derived CD31- cells; assay: UCP1 mRNA expression by quantitative RT-PCR in CD31- cells; assay type: cell-based; conditions: day 16 of differentiation; normalized with cyclophilin A; rosiglitazone 1 microM in MDM from day 0; BMP7 6 nM 2 days before day 0 then MDM
Protocol: UCP1 mRNA expression in human fetal muscle-derived CD31− cells at day 16 of differentiation were measured.
All the cells were grown for 3 days in proliferation medium (EGM2) and then (on day 0) placed for 16 days in adipogenic differentiation medium (Minimal Differentiation Medium, MDM). The “EGM2” cells were maintained in EGM2 medium all along. Rosiglitazone (1 microM) was added from day 0 and kept in the medium until the end of the study. BMP7 (6 nM) was added 2 days before day 0 and removed at day 0. Effects of differentiation medium (MDM vs. EGM2), rosiglitazone (MDM+rosi vs. MDM) and BPM7 (MDM+BMP7 vs. MDM) are shown as fold change (as compared to EGM2 cells) on UCP1 mRNA expression in human muscle-derived brown adipocyte progenitor cells (CD31-). […]
Quantitative real-time PCR was performed using ABI rapid thermal cycler system and a SYBR Green PCR master mix (Applied Biosystems, Foster City, Calif.), or an ABI 7300 Real-time PCR instrument, a TaqMan Gene Expression Master Mix (Applied Biosystems #4369016) and TaqMan Gene Expression Pre-formulated Assays for human uncoupling protein-1 (GenBank NM_021833) (Applied Biosystems Assay ID Hs01084772_m1, TaqMan Gene Expression Assay part #4351372) and for human peptidylprolyl isomerase A “cyclophilin A” (GenBank NM_021130) (Applied Biosystems Assay ID Hs99999904_m1, TaqMan® Gene Expression Assay part #4448485). […]

[5] = test system: CD31+ cells (CD34+/CD45-/CD56-/CD146-/CD31+); assay: Differentiation of CD31+ cells in adipogenic medium; assay type: cell-based, human; conditions: MDM with or without rosiglitazone or BMP7
Protocol: (§1) With the aim of further purifying the CD34+ cells in search for the purest physiological brown adipocyte progenitors, stroma-vascular cells were purified from two independent samples of human fetal skeletal muscle (18-19 weeks of gestation). Following the CD45, CD56, CD34, and CD146 sorting described above, an additional step of FACS sorting using an anti-CD31 antibody was performed. The cells were sorted based on the presence of the mature endothelial cell surface marker CD31 (CD31+) or absence of that marker (CD31-). It was hypothesized that the CD31− subpopulation may be a purer progenitor of human brown adipocytes. The CD31− cell fraction amounted to about 80% of the CD34+ cell population derived from skeletal muscle. For purpose of simplicity, CD34+/CD45−/CD56−/CD146−/CD31− are called “CD31−” cells [EMC309 (CD31−) and EMC314 (CD31−)]. CD34+/CD45−/CD56−/CD146−/CD31+ are called “CD31+” cells [EMC309 (CD31+) and EMC314 (CD31+)]. In addition, the myogenic progenitor cells expressing the cell surface antigen CD56 (CD56+) were also sorted and cultured: CD34+/CD45−/CD56+ (from EMC314) and CD45−/CD56+ (from EMC309) are called “CD56+” cells [EMC309 (CD56+) and EMC314 (CD56+)].
(§2) The sorted cells (CD31−, CD31+, and CD56+ cell populations) were grown under the same conditions as described above, i.e., 2-4 days in proliferation medium (EGM2) and 10-16 days in adipogenic differentiation medium. […]

[6] = test system: CD31- cells (CD34+/CD45-/CD56-/CD146-/CD31-) from human fetal skeletal muscle; assay: Differentiation of CD31- cells into adipocyte-like multilocular cells / brown adipocytes; assay type: cell-based
Protocol: as §1, §2

[7] = test system: CD56+ cells; assay: Differentiation of CD56+ cells in adipogenic medium; assay type: cell-based, human; conditions: MDM with or without rosiglitazone or BMP7
Protocol: as §1, §2

## CN(CCOc1ccc(CC2SC(=O)NC2=O)cc1)c1ccccn1 (centres unmarked) [rosiglitazone]
[1]; 7 obese type 2 diabetes patients, 8 weeks, 2×4 mg per day, group mean, after vs before treatment
  increase of level of expression of UCP1 in muscle: about 1.6 fold
[1]; individual patients 1-7, 8 weeks rosiglitazone 2×4 mg per day
  increase of UCP1 level at end of treatment vs. before treatment: 180% and 8% and 310% and 10% and 50% and 80%
[1]; individual patients 1-7, after 8 weeks rosiglitazone
  UCP1 mRNA level after treatment, normalized to cyclophilin A: 730 arbitrary units and 600 arbitrary units and 556 arbitrary units and 142 arbitrary units and 652 arbitrary units and 453 arbitrary units and 677 arbitrary units
[1]; individual patients 1-7, control = 100%
  UCP1 level at end of treatment relative to control (before treatment): 280% and 108% and 410% and 110% and 150% and 100% and 180%
[2]
  UCP1 intensity per nucleus: 105,542
[2]; vs without rosiglitazone
  increase of level of UCP1 protein: 7 fold
[3]; expanded cells (P3), vs untreated control
  stimulation of UCP1 mRNA expression: 8 fold
[3]; primary culture cells (PC)
  effect on UCP1 mRNA expression: no effect
[4]
  increase of UCP1 expression compared to EGM2 control condition: 507-553 fold

B1: BMP7: recombinant human bone morphogenic protein-7 from R&D Systems (protein, UniProt P18075 293-431, looked up)
Bone morphogenetic protein 7: STGSKQRSQNRSKTPKNQEALRMANVAENSSSDQRQACKKHELYVSFRDLGWQDWIIAPEGYAAYYCEGECAFPLNSYMNATNHAIVQTLVHFINPETVPKPCCAPTQLNAISVLYFDDSSNVILKKYRNMVVRACGCH
[5]
  differentiation of CD31+ cells into adipocyte-like multilocular cells: did not differentiate
[4]
  increase of UCP1 expression compared to EGM2 control condition: 78-127 fold
[6]; 6 nM, before induction of differentiation (day -3 or -2 to day 0)
  differentiation of CD31- cells into brown adipocytes: strongly promoted
[6]; MDM containing the compound
  fraction of CD31- cells differentiated into adipocyte-like multilocular cells: virtually all
[7]
  differentiation of CD56+ cells into adipocyte-like multilocular cells: did not differentiate
